Six compounds from patent publication US20160272617A1, “SUBSTITUTED PHENYLALANINE DERIVATIVES” (BAYER PHARMA AKTIENGESELLSCHAFT, priority 2013, published 2016) can be followed below.

For one test, the system named is human and animal plasma. Nature of the test: Determination of anticoagulatory activity: activated partial thromboplastin time (aPTT) in plasma. As to conditions: concentration of test substance which brings about a 1.5-fold extension of the aPTT; plasma species not given. In short, it runs like this: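 Citrated plasma (1:9, 0.11 M citrate; 4000 g, 15 min) from human or animal blood incubated with test compound and cephalin/kaolin PTT reagent for 3 min at 37° C.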

A further test concerns the target T1, human plasmin (Homo sapiens, UniProt P00747).
T1 construct: purchased Kordia
Nature of the test: Measurement of plasmin inhibition (fluorogenic peptide substrate MeOSuc-Ala-Phe-Lys-AMC). Format: biochemical. As to conditions: plasmin from Kordia, 15 min preincubation, 30 min at 22° C., fluorescence. The protocol: The plasmin inhibition of the inventive substances is determined using a biochemical test system which utilizes the reaction of a peptidic plasmin substrate to determine the enzymatic activity of human plasmin. Here, plasmin cleaves from the peptic plasmin substrate the C-terminal aminomethylcoumarin (AMC), the fluorescence of which is measured. The determinations are carried out in microtitre plates.
Test substances are dissolved in dimethyl sulphoxide and serially diluted in dimethyl sulphoxide (3000 μM to 0.0078 μM; resulting final concentrations in the test: 50 μM to 0.00013 μM). In each case 1 μl of the diluted substance solutions are placed into the wells of white microtitre plates from Greiner (384 wells). Subsequently, the following are added successively: 20 μl of assay buffer (50 mmol/Tris buffer pH 7.4; 100 mmol/l sodium chloride; 5 mmol/calcium chloride; 0.1% bovine serum albumin) and 20 μl of plasmin from Kordia (0.3 μg/ml in assay buffer) are then added successively. After 15 min of incubation, the enzyme reaction is started by addition of 20 μl of the plasmin substrate MeOSuc-Ala-Phe-Lys-AMC dissolved in assay buffer (150 μM in assay buffer) from Bachem, the mixture is incubated at room temperature (22° C.) for 30 min and fluorescence is then measured (excitation: 360 nm, emission: 460 nm). The measured emissions of the test batches with test substance are compared to those of control batches without test substance (only dimethyl sulphoxide instead of test substance in dimethyl sulphoxide), and the IC50 values are calculated from the concentration/activity relationships.

Another test deals with T2, human factor XIa (Homo sapiens, UniProt P03951).
T2 construct: purchased Kordia
Nature of the test: Measurement of FXIa inhibition (fluorogenic peptide substrate Boc-Glu(OBzl)-Ala-Arg-AMC). The format is biochemical. The note with it: factor XIa from Kordia, 15 min preincubation, 30 min at 22° C., fluorescence. Summed up: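 Released AMC fluorescence (360/460 nm) read after 30 min at 22 °C. The reaction was started with Boc-Glu(OBzl)-Ala-Arg-AMC (10 μM stock) after a 15 min preincubation of the enzyme (0.45 nM stock) with compound (final 50 μM to 0.00013 μM).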

Structures can show the parent of a compound that is named as a salt.

T2 sequence (P03951 388-625 limits assumed): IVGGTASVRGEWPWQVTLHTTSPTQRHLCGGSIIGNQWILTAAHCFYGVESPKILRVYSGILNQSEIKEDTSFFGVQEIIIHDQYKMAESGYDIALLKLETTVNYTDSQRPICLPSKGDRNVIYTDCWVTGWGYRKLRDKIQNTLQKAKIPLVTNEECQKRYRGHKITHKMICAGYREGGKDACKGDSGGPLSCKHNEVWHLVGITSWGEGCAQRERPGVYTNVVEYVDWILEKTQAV
T2 sequence (P03951 19-387 partner limits assumed): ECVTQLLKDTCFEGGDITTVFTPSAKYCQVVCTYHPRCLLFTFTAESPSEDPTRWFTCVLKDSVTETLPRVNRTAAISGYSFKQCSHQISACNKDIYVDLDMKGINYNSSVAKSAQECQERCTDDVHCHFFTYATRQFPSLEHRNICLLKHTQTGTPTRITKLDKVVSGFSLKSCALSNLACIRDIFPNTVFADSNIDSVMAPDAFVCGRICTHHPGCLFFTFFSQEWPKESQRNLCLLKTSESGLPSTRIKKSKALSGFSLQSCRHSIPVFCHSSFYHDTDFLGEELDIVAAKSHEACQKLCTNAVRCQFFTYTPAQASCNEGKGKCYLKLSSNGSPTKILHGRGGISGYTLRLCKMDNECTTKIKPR
T1 sequence (P00747 581-810 limits assumed): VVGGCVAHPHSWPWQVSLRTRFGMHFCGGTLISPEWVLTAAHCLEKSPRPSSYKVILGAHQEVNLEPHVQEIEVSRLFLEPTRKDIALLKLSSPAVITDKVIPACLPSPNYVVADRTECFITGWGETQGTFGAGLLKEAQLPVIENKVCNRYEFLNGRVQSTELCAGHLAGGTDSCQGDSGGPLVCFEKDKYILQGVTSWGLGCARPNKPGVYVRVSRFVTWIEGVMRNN
T1 sequence (P00747 97-580 partner limits assumed): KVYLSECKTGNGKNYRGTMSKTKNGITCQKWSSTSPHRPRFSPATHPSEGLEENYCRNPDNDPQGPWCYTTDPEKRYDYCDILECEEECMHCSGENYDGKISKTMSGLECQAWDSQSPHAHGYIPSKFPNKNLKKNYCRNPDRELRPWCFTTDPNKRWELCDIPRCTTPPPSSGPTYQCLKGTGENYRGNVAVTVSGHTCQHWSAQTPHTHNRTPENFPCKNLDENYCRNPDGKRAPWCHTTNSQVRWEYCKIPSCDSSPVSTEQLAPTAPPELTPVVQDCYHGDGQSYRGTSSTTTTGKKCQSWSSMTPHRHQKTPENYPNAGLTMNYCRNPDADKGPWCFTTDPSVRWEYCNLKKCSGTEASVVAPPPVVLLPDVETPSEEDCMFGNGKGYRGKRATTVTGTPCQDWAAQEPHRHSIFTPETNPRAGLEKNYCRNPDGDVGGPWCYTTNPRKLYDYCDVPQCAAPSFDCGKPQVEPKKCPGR

For orientation: IC50 means the concentration needed to halve the response being measured. With `Cc1cc(C(=O)NC(C)C)ccc1-c1ccc(C[C@H](NC(=O)[C@H]2CC[C@H](CN)CC2)C(=O)Nc2cc(Cl)c3[nH]c(=O)[nH]c3c2)cc1` [Example 158, 4′-{(2S)-2-({[trans-4-(Aminomethyl)cyclohexyl]carbonyl}amino)-3-[(7-chloro-2-oxo-2,3-dihydro-1H-benzimidazol-5-yl)amino]-3-oxopropyl}-N-isopropyl-2-methylbiphenyl-4-carboxamide hydrochloride], in the test with human and animal plasma, the “aPTT” value was 0.1 µmol/L. The IC50 at human plasmin was determined as 0.43 nM; against human factor XIa it was 3.8 nM.
The matching figures for `Cc1cc(C(=O)NC(C)C)ccc1-c1ccc(C[C@H](NC(=O)[C@H]2CC[C@H](CN)CC2)C(=O)Nc2cc(Cl)c3cn[nH]c3c2)cc1` [Example 159, 4′-{(2S)-2-({[trans-4-(Aminomethyl)cyclohexyl]carbonyl}amino)-3-[(4-chloro-1H-indazol-6-yl)amino]-3-oxopropyl}-N-isopropyl-2-methylbiphenyl-4-carboxamide hydrochloride]: 0.36 µmol/L, 0.32 nM and 3.5 nM.
Turning to `Cc1cc(C(=O)NC2CCC2)ccc1-c1ccc(C[C@H](NC(=O)[C@H]2CC[C@H](CN)CC2)C(=O)Nc2ccc3c(=O)[nH][nH]c3c2)cc1` [Example 162, 4′-{(2S)-2-({[trans-4-(Aminomethyl)cyclohexyl]carbonyl}amino)-3-oxo-3-[(3-oxo-2,3-dihydro-1H-indazol-6-yl)amino]propyl}-N-cyclobutyl-2-methylbiphenyl-4-carboxamide hydrochloride], the “aPTT” value in the test on human and animal plasma is 0.15 µmol/L. Besides, the 50% inhibitory concentration (IC50) on human plasmin turned out to be 1.1 nM; on human factor XIa, 1.8 nM.
The matching figures for `Cc1cc(C(=O)N2CCC3CNC(=O)C32)ccc1-c1ccc(C[C@H](NC(=O)[C@H]2CC[C@H](CN)CC2)C(=O)Nc2ccc3cn[nH]c3c2)cc1` (stereo partly drawn) [Example 163, trans-4-(Aminomethyl)-N-[(2S)-1-(1H-indazol-6-ylamino)-3-{2′-methyl-4′-[(6-oxohexahydropyrrolo[3,4-b]pyrrol-1(2H)-yl)carbonyl]biphenyl-4-yl}-1-oxopropan-2-yl]cyclohexanecarboxamide hydrochloride]: 0.07 µmol/L, 8.8 nM and 10 nM.
Turning to `Cc1cc(C(=O)NC2CC(O)C2)ccc1-c1ccc(C[C@H](NC(=O)[C@H]2CC[C@H](CN)CC2)C(=O)Nc2ccc3cn[nH]c3c2)cc1` (stereo partly drawn) [Example 164, 4′-[(2S)-2-({[trans-4-(Aminomethyl)cyclohexyl]carbonyl}amino)-3-(1H-indazol-6-ylamino)-3-oxopropyl]-N-(3-hydroxycyclobutyl)-2-methylbiphenyl-4-carboxamide hydrochloride], in the test with human and animal plasma, the “aPTT” value was 0.13 µmol/L. Further, the IC50 stood at 13 nM on human plasmin and 7.6 nM against human factor XIa.
As for `Cc1cc(C(=O)NC2CC2)ccc1-c1ccc(C[C@H](NC(=O)[C@H]2CC[C@H](CN)CC2)C(=O)Nc2ccc3cn[nH]c3c2)cc1` [Example 167, 4′-[(2S)-2-({[trans-4-(Aminomethyl)cyclohexyl]carbonyl}amino)-3-(1H-indazol-6-ylamino)-3-oxopropyl]-N-cyclopropyl-2-methylbiphenyl-4-carboxamide hydrochloride], in the test on human and animal plasma, the “aPTT” value is 0.12 µmol/L. For the same compound, the IC50 against human plasmin was determined as 1.9 nM; at human factor XIa, 6 nM.
